From patent US9550782B2, “Compounds and methods for treating diabetes” (Medivation Technologies, Inc., priority 2011, dated 2017)
“And” between values parts separate entries of the source, which are not always exact repeats. Identical values can stand only once.

Tests used:
[1] = target: T1, rat adrenergic α1B receptor (Rattus norvegicus, UniProt P15823); test: Radioligand binding, adrenergic α1B ([3H]Prazosin); parameters: species or system Wistar Rat; conditions: for Percentage inhibition of ligand binding, Adrenergic α1B (0.1 μM): repeat datapoints each shown
T1 construct: rat adrenergic α1B receptor obtained from Wistar Rat liver; from tissue; host or cells: Wistar rat liver
T1 sequence (P15823 1-515): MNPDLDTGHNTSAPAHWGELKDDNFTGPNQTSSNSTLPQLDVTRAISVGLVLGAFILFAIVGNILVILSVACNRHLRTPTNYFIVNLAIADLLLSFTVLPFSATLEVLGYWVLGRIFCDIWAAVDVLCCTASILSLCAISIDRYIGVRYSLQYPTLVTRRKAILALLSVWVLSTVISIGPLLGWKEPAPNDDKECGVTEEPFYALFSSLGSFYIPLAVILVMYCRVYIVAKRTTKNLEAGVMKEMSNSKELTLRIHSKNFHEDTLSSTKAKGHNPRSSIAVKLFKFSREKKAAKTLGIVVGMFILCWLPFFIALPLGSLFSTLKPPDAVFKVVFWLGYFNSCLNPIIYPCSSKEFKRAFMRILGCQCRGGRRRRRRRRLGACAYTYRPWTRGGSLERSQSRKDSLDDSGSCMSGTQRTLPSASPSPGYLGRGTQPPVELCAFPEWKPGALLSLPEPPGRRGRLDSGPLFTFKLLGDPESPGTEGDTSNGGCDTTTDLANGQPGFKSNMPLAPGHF
Method in brief: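 Incubation ran 60 min at 25 °C in Tris-HCl buffer (50 mM, pH 7.4, 0.5 mM EDTA) with Wistar rat liver α1B receptor. 10 μM phentolamine set non-specific binding.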

[2] = target: T2, human recombinant adrenergic α2A receptor (Homo sapiens, UniProt P08913); test: Radioligand binding, adrenergic α2A ([3H]MK-912); conditions: [3H]MK-912; for Percentage inhibition of ligand binding, Adrenergic α2A (0.1 μM): repeat datapoints each shown
T2 construct: expressed in transfected cells; host or cells: insect Sf9 cells
T2 sequence (P08913 1-465): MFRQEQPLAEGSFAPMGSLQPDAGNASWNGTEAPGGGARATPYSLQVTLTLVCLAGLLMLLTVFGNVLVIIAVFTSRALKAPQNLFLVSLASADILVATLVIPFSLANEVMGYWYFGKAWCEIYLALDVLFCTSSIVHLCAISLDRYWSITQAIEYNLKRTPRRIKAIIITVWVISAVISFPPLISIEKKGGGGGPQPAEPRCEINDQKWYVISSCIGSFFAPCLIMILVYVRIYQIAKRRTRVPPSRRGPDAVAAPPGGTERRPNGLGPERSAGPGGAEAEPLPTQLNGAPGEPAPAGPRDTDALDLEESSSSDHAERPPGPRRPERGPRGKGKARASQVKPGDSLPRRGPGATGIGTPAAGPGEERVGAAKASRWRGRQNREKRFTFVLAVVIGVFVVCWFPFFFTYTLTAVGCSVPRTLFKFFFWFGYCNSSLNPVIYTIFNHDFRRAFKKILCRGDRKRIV
Method in brief: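 Sf9-expressed receptor was incubated with compound for 60 min at 25 °C in modified Tris-HCl buffer, pH 7.4. Nonspecific binding was taken as that remaining with 10 μM WB-4101.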

[3] = target: T3, human recombinant adrenergic α2B receptor (Homo sapiens, UniProt P18089); test: Radioligand binding, adrenergic α2B ([3H]Rauwolscine); conditions: for Percentage inhibition of ligand binding, Adrenergic α2B (0.03 μM): repeat datapoints each shown
T3 construct: expressed in transfected cells; host or cells: CHO-K1
T3 sequence (P18089 1-450): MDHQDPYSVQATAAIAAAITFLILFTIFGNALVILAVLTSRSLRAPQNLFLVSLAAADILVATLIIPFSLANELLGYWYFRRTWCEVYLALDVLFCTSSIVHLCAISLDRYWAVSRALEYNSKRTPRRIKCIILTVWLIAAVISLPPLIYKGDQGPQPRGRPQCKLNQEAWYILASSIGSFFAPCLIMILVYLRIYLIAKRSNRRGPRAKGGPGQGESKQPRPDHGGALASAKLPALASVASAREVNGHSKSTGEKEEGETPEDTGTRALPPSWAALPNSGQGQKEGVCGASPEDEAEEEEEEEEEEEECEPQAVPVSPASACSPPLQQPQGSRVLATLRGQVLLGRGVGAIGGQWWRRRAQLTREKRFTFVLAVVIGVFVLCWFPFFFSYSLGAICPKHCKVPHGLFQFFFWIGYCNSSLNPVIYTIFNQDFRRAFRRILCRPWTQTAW
Method in brief: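 Receptor expressed in CHO-K1 cells, assayed in 50 mM Tris-HCl pH 7.4 with 12.5 mM MgCl2, 1 mM EDTA and 0.2% BSA. Compounds were incubated with 2.5 nM [3H]Rauwolscine for 60 min at 25° C; 10 μM Prazosin defined non-specific binding. Filter counting gave percent inhibition of specific binding.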

Compound | Percentage inhibition of ligand binding, Adrenergic α1B (0.1 μM) ([1]; compound at 0.1 μM, 0.1 µM) [%] | Percentage inhibition of ligand binding, Adrenergic α2A (0.1 μM) ([2]; compound at 0.1 μM, 0.1 µM) [%] | Percentage inhibition of ligand binding, Adrenergic α2B (0.03 μM) ([3]; compound at 0.03 μM, 0.03 µM) [%] | Percentage inhibition of ligand binding, Adrenergic α1B ([1]; 0.1 μM compound, 0.1 µM) [%] | Percentage inhibition of ligand binding, Adrenergic α2B ([3]; 0.03 μM compound, 0.03 µM) | other results
Cc1ccc2c(c1)c1c(n2CC(O)c2ccncc2)C(C)N2CCC1C2 (single isomer, unassigned) [38b] | 20 | −1 | 17 |  |  | 
OC(Cn1c2c(c3cccnc31)CN1CCCC1C2)c1ccncc1 (single isomer, unassigned) [37c] | 2 | 6 | 0 |  |  | 
Cc1cnc2c(c1)c1c(n2CCc2ccc(C)nc2)CCN2CCCC12 (centres unmarked) [74b, 10-methyl-7-(2-(6-methylpyridin-3-yl)ethyl)-2,3,5,6,7,1c-hexahydro-1H-pyrido[3′,2′:4,5]pyrrolo[2,3-g]indolizine] | 28 | 14 | 27 |  |  | 
Cc1ccc2c(c1)c1c(n2CC(O)c2ccncc2)CC2CCCN2C1 (single isomer, unassigned) [76b] | 71 | 18 | 34 |  |  | 
OC(Cn1c2c(c3cccnc31)CN1CCCC1C2)c1ccncc1 (single isomer, unassigned) [37d] | 2 | 8 | −3 |  |  | 
Cc1ccc2c(c1)c1c(n2CC(O)c2cccnc2)CCN(CCO)C1 (single isomer, unassigned) [21a] | 5 | −1 | −2 |  |  | 
Cc1cnc2c(c1)c1c(n2CC(C)(O)c2cccnc2)CCN(C)C1 (single isomer, unassigned) [II-99b] |  |  |  |  |  | Percentage inhibition of ligand binding, Adrenergic α1B ([1]; compound at 0.1 μM, 0.1 µM): 5%; Percentage inhibition of ligand binding, Adrenergic α2A ([2]; compound at 0.1 μM, 0.1 µM): 16%; Percentage inhibition of ligand binding, Adrenergic α2B ([3]; compound at 0.03 μM, 0.03 µM): 7%
CN1CCc2c(c3cc(Cl)ccc3n2CC(C)(O)c2cccnc2)C1 (centres unmarked) [31b] | 3 | 14 | 36 |  |  | 
Cc1ccc2c(c1)c1c(n2CC(C)(O)c2cccnc2)CNCC1 (centres unmarked) [128b] |  |  |  | 45 | 54% | Percentage inhibition of ligand binding, Adrenergic α2A ([2]; 0.1 μM compound, 0.1 µM): 22%
Cc1ccc2c(c1)c1c(n2CC(C)(O)c2ccc[n+]([O-])c2)CCN(C)C1 (single isomer, unassigned) [56b] | 6 | 17 | 28 |  |  | 
Cc1ccc2c(c1)c1c(n2CC(O)c2cn[nH]c2)CCN(C)C1 (centres unmarked) [II-106b] |  |  |  |  |  | Percentage inhibition of ligand binding, Adrenergic α1B (0.1 μM) ([1]; compound at 0.1 μM): 31%; Percentage inhibition of ligand binding, Adrenergic α2A (0.1 μM) ([2]; compound at 0.1 μM): 8%; Percentage inhibition of ligand binding, Adrenergic α2B (0.03 μM) ([3]; compound at 0.03 μM): 36%
Cc1cnc2c(c1)c1c(n2CC(C)(O)c2cccnc2)CCN(C)C1 (single isomer, unassigned) [II-99a] |  |  |  |  |  | Percentage inhibition of ligand binding, Adrenergic α1B ([1]; compound at 0.1 μM, 0.1 µM): 12%; Percentage inhibition of ligand binding, Adrenergic α2A ([2]; compound at 0.1 μM, 0.1 µM): 24%; Percentage inhibition of ligand binding, Adrenergic α2B ([3]; compound at 0.03 μM, 0.03 µM): 49%
Cc1ccc2c(c1)c1c(n2CC(O)c2ccncc2)CCN2CCCCC12 (single isomer, unassigned) [47c] | 6 | 4 | 53 |  |  | 
OC(Cn1c2c(c3cccnc31)CN1CCCC1C2)c1ccncc1 (single isomer, unassigned) [37a] | −5 | 18 | 2 |  |  | 
CN1CCc2c(c3cc(Cl)ccc3n2CC(O)c2ccncc2)C1 (single isomer, unassigned) [4b] | 58 | 7 | 46 |  |  | 
Cc1ccc2c(c1)c1c(n2CC(C)(O)c2cccnc2)CCNC1 (single isomer, unassigned) [24b] |  | 15 | 29 |  |  | Percentage inhibition of ligand binding, Adrenergic α1B (0.1 μM) ([1]; compound at 0.1 μM): 8%
Cc1ccc2c(c1)c1c(n2CC(N)c2ccncc2)CC2CCC1N2C (single isomer, unassigned) [155b] |  |  |  | 1 |  | Percentage inhibition of ligand binding, Adrenergic α2A ([2]; 0.1 μM compound, 0.1 µM): 5%; Percentage inhibition of ligand binding, Adrenergic α2B ([3]; 0.03 μM compound): 5%

Now from value to compound, other results behind:

Percentage inhibition of ligand binding, Adrenergic α1B (0.1 μM) ([1]; compound at 0.1 μM, 0.1 µM) [%] | Percentage inhibition of ligand binding, Adrenergic α2A (0.1 μM) ([2]; compound at 0.1 μM, 0.1 µM) [%] | Percentage inhibition of ligand binding, Adrenergic α2B (0.03 μM) ([3]; compound at 0.03 μM, 0.03 µM) [%] | Percentage inhibition of ligand binding, Adrenergic α1B ([1]; 0.1 μM compound, 0.1 µM) [%] | Percentage inhibition of ligand binding, Adrenergic α2B ([3]; 0.03 μM compound, 0.03 µM) | Compound | other results
 |  |  | 23 | 30% | Cc1ccc(CCn2c3c(c4cc(Cl)cnc42)C2CCCN2CC3)cn1 (single isomer, unassigned) [137b] | Percentage inhibition of ligand binding, Adrenergic α2A ([2]; 0.1 μM compound): 6%
 |  |  | 61 | 63% | Cc1cnc2c(c1)c1c(n2CC(C)(O)c2ccc(F)cc2)CCN(C)C1 (single isomer, unassigned) [138a] | Percentage inhibition of ligand binding, Adrenergic α2A ([2]; 0.1 μM compound, 0.1 µM): −8%
 |  |  | 54.6 | 93% and 103% | Cc1ccc2c(c1)c1c(n2CC(C)(O)c2ccc(C)nc2)CN(C)CC1 (single isomer, unassigned) [196a] | Percentage inhibition of ligand binding, Adrenergic α1B ([1]; 0.03 μM compound): 30%; Percentage inhibition of ligand binding, Adrenergic α2A ([2]; 0.03 μM compound): 37%; Percentage inhibition of ligand binding, Adrenergic α2A ([2]; 0.1 μM compound, 0.1 µM): 58% and 71%
 |  |  | 35 | 43% | Cc1cnc2c(c1)c1c(n2CC(N)c2ccc(C#N)cc2)CCNC1 (single isomer, unassigned) [160a] | Percentage inhibition of ligand binding, Adrenergic α2A ([2]; 0.1 μM compound, 0.1 µM): −12%
 |  |  | 53 | 52% | Cc1cnc2c(c1)c1c(n2CC(N)c2ccc(C#N)cc2)CCN(C)C1 (single isomer, unassigned) [159b] | Percentage inhibition of ligand binding, Adrenergic α2A ([2]; 0.1 μM compound): −12%
 |  |  |  | 34% | Cc1cnc2c(c1)c1c(n2CC(O)c2ccc(F)cc2)CCN(C)C1 (single isomer, unassigned) [136a] | Percentage inhibition of ligand binding, Adrenergic α1B ([1]; 0.1 μM compound): 54%; Percentage inhibition of ligand binding, Adrenergic α2A ([2]; 0.1 μM compound, 0.1 µM): 16%
 |  |  | 11 | 63% | Cc1ccc2c(c1)c1c(n2CC(C)(OC(=O)C(C)C)c2cccnc2)CCN(C)C1 (single isomer, unassigned) [146b] | Percentage inhibition of ligand binding, Adrenergic α2A ([2]; 0.1 μM compound, 0.1 µM): 21%
